Drawing on publication PMC4805651, “Inhibition of DNA–Topoisomerase I by Acylated Triterpene Saponins from Pittosporum angustifolium Lodd” (Natural Products and Bioprospecting, 2016), this text covers IC50 for ten compounds.

Usually IC50 stands for the concentration at which inhibition is half-maximal.

For one data set, the target named is T1, human topoisomerase I (Homo sapiens, UniProt P11387).
T1 construct: purchased Inspiralis Limited, UK (assay run by the vendor as a service)
T1 sequence (P11387 1-765): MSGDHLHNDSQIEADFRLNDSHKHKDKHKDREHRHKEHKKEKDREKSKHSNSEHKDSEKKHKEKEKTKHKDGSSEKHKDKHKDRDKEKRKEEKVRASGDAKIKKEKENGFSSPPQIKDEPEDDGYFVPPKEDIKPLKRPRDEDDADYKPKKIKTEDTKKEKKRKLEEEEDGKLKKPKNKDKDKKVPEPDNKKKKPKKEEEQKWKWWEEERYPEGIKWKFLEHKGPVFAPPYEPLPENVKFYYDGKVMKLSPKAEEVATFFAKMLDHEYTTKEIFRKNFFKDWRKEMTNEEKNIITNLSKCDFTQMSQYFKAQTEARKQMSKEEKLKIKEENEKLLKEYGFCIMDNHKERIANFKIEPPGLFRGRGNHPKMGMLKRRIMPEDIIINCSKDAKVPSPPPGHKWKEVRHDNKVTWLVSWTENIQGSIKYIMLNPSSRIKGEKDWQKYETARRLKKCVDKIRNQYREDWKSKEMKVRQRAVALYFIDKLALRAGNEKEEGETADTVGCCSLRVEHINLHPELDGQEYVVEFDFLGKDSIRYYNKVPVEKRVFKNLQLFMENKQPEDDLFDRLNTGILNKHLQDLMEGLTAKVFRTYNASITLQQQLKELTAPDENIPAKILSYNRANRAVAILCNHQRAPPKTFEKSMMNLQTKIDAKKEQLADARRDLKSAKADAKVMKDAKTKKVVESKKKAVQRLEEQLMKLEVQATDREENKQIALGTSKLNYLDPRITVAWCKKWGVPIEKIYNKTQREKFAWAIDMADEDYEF
As to the kind of experiment: DNA relaxation assay on human topoisomerase I (gel based, supercoiled pBR322). In kind it is biochemical. As to conditions: ±SD, n = 2; relaxation of supercoiled pBR322, 37 °C, 30 min, 10 % DMSO; read-out: IC50 [µM] Topo I.

In data set [1] the test system is MCF-7: human breast cancer cells. On the set-up: method as in PMID 24046217, PMID 25069157. The conditions noted are these: ±SD, ref [3], [5], [10], read-out: IC50 [µM] Cytotoxicity MCF-7; cited from earlier work.
Data set [2] has as its system LN-18: human glioblastoma cells. On the set-up: method as in PMID 24046217, PMID 25069157. The conditions noted are these: ±SD, ref [3], [5], [10], read-out: IC50 [µM] Cytotoxicity LN-18; cited from earlier work.
The subject of data set [3] is HaCat: human keratinocyte cells. On the set-up: method as in PMID 24046217, PMID 25069157. As to conditions: ±SD; HaCaT human keratinocyte cells (non-tumorigenic); ref [3], [5], [10]; read-out: IC50 [µM] Cytotoxicity HaCaT; cited from earlier work.
Data set [4] relates to 5637: human urinary bladder carcinoma cells. On the set-up: method as in PMID 24046217, PMID 25069157. As to conditions: ±SD, ref [3], [5], [10], read-out: IC50 [µM] Cytotoxicity 5637; cited from earlier work.

A value given as a limit tells only on which side of the number the result lay.

Description for human topoisomerase I: The relaxation assay on human topoisomerase I was carried out by Inspiralis Limited®, UK, according to their SOP (standard operating procedure). All compounds were dissolved in DMSO and then diluted to yield concentration ranges from 1 nM to 1 mM. […] 1 U (the amount of enzyme required to completely relax the substrate) was incubated with 0.5 µg supercoiled plasmid DNA (pBR322) at 37 °C for 30 min in a 30 µL reaction mixture of 20 mM Tris HCL (pH 7.5), 200 mM NaCl, 0.25 mM EDTA and 5 % glycerol. The reaction was stopped by adding 30 µL chloroform/iso-amyl alcohol (26:1) and 20 µL Stop Dye (40 % sucrose, 100 mM Tris HCl (pH 7.5), 10 mM EDTA, 0.5 μg/mL bromophenol blue) before being loaded on a 0.8 % TAE gel run for 2 h at 80 V. Then bands were visualized by ethidium staining for 10 min and analyzed by documentation equipment (Syngene, Cambridge, UK), gel scanning software (Syngene, GeneTools) and SigmaPlot version 12.3. All assays were carried out in a final DMSO concentration of 10 % and were performed twice.

Take `CC=C(C)C(=O)OC1C(OC(=O)C(C)=CC)C2(CO)C(CC1(C)C)C1=CCC3C4(C)CCC(OC5OC(C(=O)O)C(OC6OC(CO)C(O)C6O)C(OC6OCC(O)C(O)C6O)C5OC5OC(CO)C(O)C(O)C5O)C(C)(C)C4CCC3(C)C1(C)C(O)C2O` (centres unmarked) [Compound 9, IIIC4]: the IC50 at human topoisomerase I is 46.5 ± 11.5 µM; in data set [1] it was 8.9 ± 0.8 µM; in data set [2] it was 4.6 ± 0.5 µM; in data set [3] it was 2.2 ± 0.5 µM.
For `CCC(C)(OC(C)=O)C(=O)OC1C(OC(C)=O)C(C)(C)CC2C3=CCC4C5(C)CCC(OC6OC(C(=O)O)C(OC7OC(CO)C(O)C7O)C(OC7OCC(O)C(O)C7O)C6OC6OC(CO)C(O)C(O)C6O)C(C)(C)C5CCC4(C)C3(C)C(O)C(O)C21CO` (centres unmarked) [Compound 6, pittangretoside O], the IC50 was 7.5 ± 1.6 µM on human topoisomerase I, 22.9 ± 1.8 µM in data set [1], 4.4 ± 0.7 µM in data set [2] and 19.2 ± 2.1 µM in data set [3].
As for `CCC(C)C(=O)OC1CC(C)(C)CC2C3=CCC4C5(C)CCC(OC6OC(C(=O)O)C(OC7OC(CO)C(O)C7O)C(OC7OCC(O)C(O)C7O)C6OC6OC(CO)C(O)C(O)C6O)C(C)(C)C5CCC4(C)C3(C)C(O)C(O)C12CO` (centres unmarked) [Compound 8], the IC50 was 2.8 ± 1.1 µM at human topoisomerase I and 3.9 ± 0.1 µM in data set [2].
On to `CC=C(C)C(=O)OC1C(OC(C)=O)C2(CO)C(CC1(C)C)C1=CCC3C4(C)CCC(OC5OC(C(=O)O)C(OC6OC(CO)C(O)C6O)C(OC6OCC(O)C(O)C6O)C5OC5OC(CO)C(O)C(O)C5O)C(C)(C)C4CCC3(C)C1(C)C(O)C2O` (centres unmarked) [Compound 4, IIIA3], for which the IC50 was 8.6 ± 0.1 µM at human topoisomerase I, 19.8 ± 2.2 µM in data set [1], 13.4 ± 0.8 µM in data set [2] and 15.9 ± 1.3 µM in data set [3].
Turning to `CC=C(C)C(=O)OC1CC(C)(C)CC2C3=CCC4C5(C)CCC(OC6OC(C(=O)O)C(O)C(O)C6OC6OC(CO)C(O)C(O)C6OC6OC(C)C(O)C(O)C6O)C(C)(C)C5CCC4(C)C3(C)C(O)C(O)C12CO` (centres unmarked) [Compound 2, pittangretoside D], the IC50 on human topoisomerase I was 4.8 ± 2.4 µM; in data set [4] it was 17.9 ± 1 µM; in data set [1], 36.6 ± 5.7 µM; in data set [2] it was 35.7 ± 5.2 µM; in data set [3], > 118 µM.
Regarding `CC=C(C)C(=O)OC1CC(C)(C)CC2C3=CCC4C5(C)CCC(OC6OC(C(=O)O)C(OC7OC(CO)C(O)C7O)C(OC7OCC(O)C(O)C7O)C6OC6OC(CO)C(O)C(O)C6O)C(C)(C)C5CCC4(C)C3(C)C(O)C(O)C12CO` (centres unmarked) [Compound 1, pittangretoside A], the IC50 at human topoisomerase I is 7.5 ± 0.6 µM; in data set [4], 4.1 ± 1 µM; in data set [1], 25.7 ± 1.9 µM; in data set [2] it was 7.6 ± 1.7 µM; in data set [3] it was 15.2 ± 0.9 µM.
`CC=C(C)C(=O)OC1C(OC(C)=O)C(C)(C)CC2C3=CCC4C5(C)CCC(OC6OC(C(=O)O)C(OC7OC(CO)C(O)C7O)C(OC7OCC(O)C(O)C7O)C6OC6OC(CO)C(O)C(O)C6O)C(C)(C)C5CCC4(C)C3(C)C(O)C(O)C21CO` (centres unmarked) [Compound 5, pittangretoside N]: the IC50 on human topoisomerase I is 6.5 ± 0.6 µM; in data set [1], 28.7 ± 3.6 µM; in data set [2], 10.4 ± 2.7 µM; in data set [3], 34.1 ± 2.8 µM.
Turning to `CCC(C)C(=O)OC1C(OC(C)=O)C2(CO)C(CC1(C)C)C1=CCC3C4(C)CCC(OC5OC(C(=O)O)C(OC6OC(CO)C(O)C6O)C(OC6OCC(O)C(O)C6O)C5OC5OC(CO)C(O)C(O)C5O)C(C)(C)C4CCC3(C)C1(C)C(O)C2O` (centres unmarked) [Compound 7, pittangretoside P], the IC50 on human topoisomerase I is 4.2 ± 0.2 µM; in data set [1], 28.7 ± 3.2 µM; in data set [2], 7 ± 0.9 µM; in data set [3], 11.2 ± 0.5 µM.
For the compound `CCC(C)C(=O)OCC12C(O)CC(C)(C)CC1C1=CCC3C4(C)CCC(OC5OC(C(=O)O)C(OC6OC(CO)C(O)C6O)C(OC6OCC(O)C(O)C6O)C5OC5OC(CO)C(O)C(O)C5O)C(C)(C)C4CCC3(C)C1(C)C(O)C2O` (centres unmarked) [Compound 3, pittangretoside F], the IC50 at human topoisomerase I is 16.8 ± 0.4 µM; in data set [4], > 106 µM.
On to `CC=C(C)C(=O)OC1C(OC(=O)C(C)=CC)C2(CO)C(O)CC3(C)C(=CCC4C5(C)CCC(OC6OC(C(=O)O)C(OC7OC(CO)C(O)C7O)C(OC7OCC(O)C(O)C7O)C6OC6OC(CO)C(O)C(O)C6O)C(C)(C)C5CCC43C)C2CC1(C)C` (centres unmarked) [Compound 10, pittangretoside T], for which, at human topoisomerase I, the IC50 came out at 5 ± 3.3 µM.
